Assay results reported in PubChem BioAssay AID2124 (Sanford-Burnham Center for Chemical Genomics, 2009).
Results filed as inconclusive are left out. Activity calls are given as the source filed them. No rule for the calls is given here; tested in MIN6 cells.

Assay: GFP-wavelength compound autofluorescence in cells – imaging, high-content imaging, artefact control, dose response (AID 2124);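 also: cells exposed to compound for 48 hours before fixing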
Settings: cells, GFP-channel autofluorescence, high-content imaging, at 10 µM; for z-score: stronger effect = higher value

Compound: COc1ccc(NC(=O)CSc2nnc(-c3cccs3)n2C)cc1OC
- z-score: -0.39 (inactive)
- cell count: 2880 cells

Compound: COc1ccccc1NC(=O)/C=C1\SCC(=O)N1C
- z-score: -0.25 (inactive)
- cell count: 3000 cells

Compound: COc1cc2c(cc1OC)-c1nncn1C(C)(C)C2
- z-score: -0.32 (inactive)
- cell count: 3220 cells

Compound: Cc1ccnc(N2C(=O)c3cccc4c([N+](=O)[O-])ccc(c34)C2=O)c1
- z-score: 0.09
- cell count: 350 cells

Compound: COc1ccc(OC)c(C2=NOC(C(=O)NCC3CCCO3)C2)c1 (stereo not drawn)
- z-score: -0.39 (inactive)
- cell count: 2830 cells

Compound: CCc1cc(C(=O)OC)c(NC(=O)CC2Sc3ccc(C(F)(F)F)cc3NC2=O)s1 (stereo not drawn)
- z-score: -0.39 (inactive)
- cell count: 2390 cells

Compound: Cc1ccccc1-n1ncc2c(SCC(=O)NCc3cccs3)ncnc21
- z-score: -0.38 (inactive)
- cell count: 2670 cells

Compound: CCOc1ccc(NC(=O)C2CCC(C)(C(=O)O)C2(C)C)cc1 (stereo not drawn)
- z-score: -0.39 (inactive)
- cell count: 3170 cells

Compound: O=C(/C=C/c1ccc2ccccc2n1)c1cc(Br)ccc1O
- z-score: -0.24 (inactive)
- cell count: 2620 cells

Compound: O=C(N=C1SCC(=O)N1c1ccccc1Cl)c1ccccc1
- z-score: -0.31 (inactive)
- cell count: 3110 cells

Compound: CCC(=O)Nc1ccc(C(=O)OCC(=O)c2ccc(C)c([N+](=O)[O-])c2)cc1
- z-score: -0.33 (inactive)
- cell count: 2960 cells

Compound: Cc1nn(-c2c(Cl)cc(Cl)cc2Cl)c(=O)c2ccccc12
- z-score: -0.33 (inactive)
- cell count: 3220 cells

Compound: COCCN(CCOC)Cc1cc(=O)oc2cc3c(cc12)CCC3
- z-score: -0.38 (inactive)
- cell count: 3160 cells

Compound: CC1CCCN(c2nc3c(c(=O)n(C)c(=O)n3C)n2CCSc2nc3ccccc3s2)C1 (stereo not drawn)
- z-score: -0.38 (inactive)
- cell count: 3180 cells

Compound: COc1cccc(C(=O)Nc2ccccc2C(=O)N2CCCC2)c1
- z-score: -0.39 (inactive)
- cell count: 3120 cells

Compound: Cc1cnc(NC(=O)CN2CCN(c3ccccn3)CC2)s1
- z-score: -0.39 (inactive)
- cell count: 2360 cells

Compound: CC1CCc2c(sc3nn[nH]c(=O)c23)C1 (stereo not drawn)
- z-score: -0.33 (inactive)
- cell count: 2750 cells

Compound: Nc1nnc(-c2cc3c(ccc4ccccc43)oc2=O)s1
- z-score: -0.23 (inactive)
- cell count: 2510 cells

Compound: O=Nc1c(O)n(Cc2ccc(Cl)cc2)c2ccccc12
- z-score: -0.33 (inactive)
- cell count: 3420 cells

Compound: CCOC(=O)N1CCN(S(=O)(=O)c2ccc3c(c2)oc(=O)n3C)CC1
- z-score: -0.31 (inactive)
- cell count: 2780 cells

Compound: Cc1noc(/C=C/c2ccc(-c3ccccc3Cl)o2)c1[N+](=O)[O-]
- z-score: 0.5
- cell count: 3160 cells

Compound: CC(=O)Oc1ccc2c(c1)Oc1cc(OC(C)=O)ccc1C21OC(=O)c2ccccc21
- z-score: 4.32
- cell count: 3270 cells

Compound: Cc1cc(/C=C2\SC(=S)NC2=O)c(C)n1-c1ccc(O)cc1
- z-score: -0.36 (inactive)
- cell count: 3000 cells

Compound: COc1ccc(N(C(=O)Cc2cccs2)C2C=CS(=O)(=O)C2)cc1 (stereo not drawn)
- z-score: -0.39 (inactive)
- cell count: 3350 cells

Compound: CC(C)C(c1nnnn1C1CCCC1)N1CCOCC1 (stereo not drawn)
- z-score: -0.33 (inactive)
- cell count: 3180 cells

Compound: CCCCNC(=S)NC(=O)c1ccc(Cl)cc1Cl
- z-score: -0.39 (inactive)
- cell count: 3500 cells

Compound: CN1CCN(C(=O)/C(=C\c2cccs2)NC(=O)c2cccs2)CC1
- z-score: -0.33 (inactive)
- cell count: 3070 cells

Compound: O=C(NC1C=CS(=O)(=O)C1)c1sc2ccccc2c1Cl (stereo not drawn)
- z-score: -0.38 (inactive)
- cell count: 2120 cells

Compound: CCOC(=O)CNC(=O)c1cn(C)c(=O)c2cc(OC)c(OC)cc12
- z-score: -0.33 (inactive)
- cell count: 3170 cells

Compound: CCCCN1C(=O)/C(=C/C=C2/CC(C)(C)CN2C)SC1=S
- z-score: 0.43
- cell count: 2800 cells

Compound: O=S(=O)(Cc1ccc(Cl)cc1)c1ccccc1-c1nnc(-c2ccccc2)o1
- z-score: -0.39 (inactive)
- cell count: 3320 cells

Compound: O=c1[nH]c2ccccc2nc1/C=C/c1ccc(F)cc1
- z-score: -0.32 (inactive)
- cell count: 3060 cells

Compound: CC(Sc1ccccc1)C(=O)NN=C1CCCCCC1 (stereo not drawn)
- z-score: -0.39 (inactive)
- cell count: 2920 cells

Compound: CC(C)CNC(=O)CSc1nnc(-c2cccc(S(=O)(=O)N3CCCCC3)c2)o1
- z-score: -0.39 (inactive)
- cell count: 2900 cells

Compound: CN(C)c1ccc(/C=C2\C(=N)N3C(=NC2=O)Sc2cc(S(C)(=O)=O)ccc23)cc1
- z-score: -0.29 (inactive)
- cell count: 2790 cells

Compound: C=CCn1c(=NC(=O)c2cc(-c3cccs3)nc3ccccc23)sc2cc(S(N)(=O)=O)ccc21
- z-score: -0.33 (inactive)
- cell count: 2770 cells

Compound: CC(C)SC1=NC(C)(C)C=C(/C=C/c2ccc(Cl)cc2Cl)N1
- z-score: -0.36 (inactive)
- cell count: 2940 cells

Compound: O=C(COC(=O)c1ccco1)NCC1CCCO1 (stereo not drawn)
- z-score: -0.39 (inactive)
- cell count: 2790 cells

Compound: CCn1c2ccccc2c2nnc(SCC(=O)Nc3cc(C)on3)nc21
- z-score: -0.33 (inactive)
- cell count: 3100 cells

Compound: Nc1c(C(=O)NC2CCCC2)sc2nc(-c3cccs3)ccc12
- z-score: -0.31 (inactive)
- cell count: 2460 cells

Compound: CCN1/C(=C/c2ccc3cc(C)ccc3[n+]2CC)Sc2ccccc21
- z-score: 1.64
- cell count: 190 cells

Compound: Cc1cc(C)nc(N2CCC(C(=O)Nc3ccc4c(c3)OCCO4)CC2)n1
- z-score: -0.33 (inactive)
- cell count: 2790 cells

Compound: CC(C)NC(=O)N1CCN(c2ccncc2S(=O)(=O)N2CCOCC2)CC1
- z-score: -0.39 (inactive)
- cell count: 2900 cells

Compound: CC(C)C1S/C(=N/N=C/c2ccco2)NC1=O (stereo not drawn)
- z-score: -0.33 (inactive)
- cell count: 3160 cells

Compound: COc1cccc(NC(=O)N2CCN(c3nnnn3-c3ccccc3)CC2)c1
- z-score: -0.33 (inactive)
- cell count: 2880 cells

Compound: COc1ccccc1NS(=O)(=O)c1cc([N+](=O)[O-])ccc1N/N=C/c1sc(N2CCOCC2)nc1-c1ccccc1
- z-score: 0.22
- cell count: 2550 cells

Compound: CCN(CC)c1ccc(/C=C2\SC(=O)N(C(C)C)C2=O)o1
- z-score: 0.48
- cell count: 941 cells

Compound: CCN(CC)c1ccc2cc(-c3nnc(-c4ccccc4)o3)c(=O)oc2c1
- z-score: 1.33
- cell count: 3220 cells

Compound: CCCn1nc2cc(C(=O)NCc3ccccc3)ccc2c1OCC
- z-score: -0.33 (inactive)
- cell count: 3340 cells

Compound: COC(=O)c1sccc1NC(=O)c1cc(OC)c(OC)c(OC)c1
- z-score: -0.39 (inactive)
- cell count: 3020 cells

Compound: CCCN1CC=C2C(C#N)=C(N)C(C#N)(C#N)C(c3cccc(OC)c3OC)C2C1 (stereo not drawn)
- z-score: 0.21
- cell count: 3050 cells

Compound: N#C/C(=C\C1=C(N2CCOCC2)C(=C/c2cccc([N+](=O)[O-])c2)/CC1)C(=O)Nc1ccccc1F
- z-score: -0.32 (inactive)
- cell count: 2940 cells

Compound: Cc1cccc(OCCNc2nc3c(c(=O)n(C)c(=O)n3C)n2C)c1
- z-score: -0.33 (inactive)
- cell count: 3060 cells

Compound: COCCNC(=S)N/N=C(\C)c1ccc2cc(OC)ccc2c1
- z-score: -0.33 (inactive)
- cell count: 2790 cells

Compound: CCC(C(=O)OCC(=O)Nc1cccc(S(=O)(=O)NC2=NCCCCC2)c1)c1ccccc1 (stereo not drawn)
- z-score: -0.33 (inactive)
- cell count: 3080 cells

Compound: c1ccc(-c2csc(-n3cnnn3)n2)cc1
- z-score: -0.38 (inactive)
- cell count: 3240 cells

Compound: O=C(CNC(=O)c1ccco1)OCC(=O)c1ccccc1
- z-score: -0.33 (inactive)
- cell count: 3180 cells

Compound: O=C1CN(C(=O)COc2ncnc3ccccc23)c2ccccc2N1
- z-score: -0.38 (inactive)
- cell count: 3020 cells

Compound: COC(=O)c1cc2c(-c3ccccc3)cc3ccccn3c-2c1C(=O)OC
- z-score: -0.23 (inactive)
- cell count: 2880 cells

Compound: O=C(O)c1cc(-c2ccncc2)nc2ccc(F)cc12
- z-score: -0.39 (inactive)
- cell count: 3070 cells

Compound: N#Cc1ccc(-c2ccc(Cl)cc2)nc1SCC(=O)c1cccc(Cl)c1
- z-score: -0.27 (inactive)
- cell count: 3130 cells

Compound: OC(COc1cccc2ccccc12)CN1CCN(c2ccccc2Cl)CC1 (stereo not drawn)
- z-score: -0.39 (inactive)
- cell count: 3270 cells

Compound: CCOc1ccc(OCC)c(-c2c(=O)n(OCc3ccc(Cl)cc3)c3ccccc3[n+]2[O-])c1
- z-score: -0.38 (inactive)
- cell count: 2760 cells

Compound: Cc1cccc(NC(=O)/C=C/c2ccc([N+](=O)[O-])s2)c1
- z-score: 0.41
- cell count: 244 cells

Compound: COc1ccc(N=C2NC(=O)S/C2=C\c2ccc(N(C)C)cc2)cc1
- z-score: -0.25 (inactive)
- cell count: 2870 cells

Compound: CCOC(=O)CC1C(=O)NCCN1c1nc2c(C)cccn2c(=O)c1/C=C1\SC(=S)N(C(C)CC)C1=O (stereo not drawn)
- z-score: 0.45
- cell count: 3100 cells

Compound: COC(=O)C1=C(N)n2c(s/c(=C\c3cccnc3)c2=O)=C(C(=O)OC)C1c1cccnc1 (stereo not drawn)
- z-score: -0.25 (inactive)
- cell count: 2640 cells

Compound: COC(=O)Cc1c(C)nc2nc(NCc3ccccc3OC)[nH]n2c1=O
- z-score: -0.26 (inactive)
- cell count: 3050 cells

Compound: CCOC(=O)/C(=C\C=C1/Sc2cc(OCC)c(OCC)cc2N1CC)C(C)=O
- z-score: 0.55
- cell count: 2790 cells

Compound: CC(C)(C)c1cc(C(=O)NCc2cccnc2)ccn1
- z-score: -0.33 (inactive)
- cell count: 3450 cells

Compound: CCCNC(=O)Cn1c(=O)/c(=C\c2ccc(-c3ccc([N+](=O)[O-])cc3)o2)s/c1=C\C(=O)C(C)(C)C
- z-score: 2.07
- cell count: 3100 cells

Compound: CCOC(=O)N1CCN(C(=O)NC2CCCCC2)CC1
- z-score: -0.38 (inactive)
- cell count: 3150 cells

Compound: COc1cc2nc(/C=C/c3ccc(N(C)C)cc3)sc2cc1SC
- z-score: 0.29
- cell count: 2900 cells

Compound: Cc1ccc(C(=O)NCCCn2ccnc2)cc1[N+](=O)[O-]
- z-score: -0.39 (inactive)
- cell count: 3010 cells

Compound: Cn1c(C(=O)N2CCC(C(=O)N3CCN(Cc4ccc5c(c4)OCO5)CC3)CC2)cc2sccc21
- z-score: -0.39 (inactive)
- cell count: 2820 cells

Compound: O=C1CCCC(O)=C1C=NCCc1ccccc1
- z-score: -0.38 (inactive)
- cell count: 3080 cells

Compound: CCc1nnc(NC(=O)CCC(=O)NCc2ccccc2OC)s1
- z-score: -0.38 (inactive)
- cell count: 2890 cells

Compound: Nc1c(C(=O)O)sc2nc(-c3ccccc3)cc(-c3ccccc3)c12
- z-score: -0.28 (inactive)
- cell count: 3320 cells

Compound: CCOc1ccc2[nH]c(=O)c(CN(CCc3ccccc3)C(=O)N3CCOCC3)cc2c1
- z-score: -0.26 (inactive)
- cell count: 3100 cells
